In the NIST ThermoML archive (doi:10.1016/j.jct.2011.07.008):

Key:
[1] = mn = molality of the nth substance listed, in mol/kg; details: 101 kPa, Liquid; for viscosity: Capillary tube (Ostwald / Ubbelohde) method
[2] = 298.15 K; 101.33 kPa; Liquid; Pycnometric method
[3] = refractive index (Na D-line) (dimensionless); details: 298.15 K; 101.33 kPa; Liquid; Standard Abbe refractometry

O [water] + CCOCCO
[1], m2 = 0
Details	viscosity [mPa·s]
275.15 K	1.674
283.15 K	1.31

[1], m2 = 0
Details	mass density [kg/m3]
275.15 K, Pycnometric method	999.94
283.15 K, Buoyancy - hydrostatic balance with magnetic suspension - one sinker	999.7

CCOCCOCCO [3,6-dioxa-1-octanol]
Details	mass density [kg/m3]	refractive index
[2]	984.045	–
[3]	–	1.4253

O [water] + COCCO
[1], m2 = 0
Details	viscosity [mPa·s]
275.15 K	1.674
283.15 K	1.31

[1], m2 = 0
Details	mass density [kg/m3]
275.15 K, Pycnometric method	999.94
283.15 K, Buoyancy - hydrostatic balance with magnetic suspension - one sinker	999.7

O [water] + COCCOCCO
[1], m2 = 0
Details	viscosity [mPa·s]
275.15 K	1.674
283.15 K	1.31

[1], m2 = 0
Details	mass density [kg/m3]
275.15 K, Pycnometric method	999.94
283.15 K, Buoyancy - hydrostatic balance with magnetic suspension - one sinker	999.7

COCCOCCO [2-(2-methoxyethoxy)ethanol]
Details	mass density [kg/m3]	refractive index
[2]	1014.39	–
[3]	–	1.4245

COCCO [2-methoxyethan-1-ol] + O
[1]
Details	viscosity [mPa·s]
275.15 K, m1 = 0.0097	1.006
275.15 K, m1 = 0.0205	1.011
275.15 K, m1 = 0.0313	1.016
275.15 K, m1 = 0.0393	1.02
275.15 K, m1 = 0.0487	1.023
275.15 K, m1 = 0.0638	1.028
275.15 K, m1 = 0.0719	1.03
275.15 K, m1 = 0.0813	1.032
275.15 K, m1 = 0.0905	1.034
275.15 K, m1 = 0.102	1.035
283.15 K, m1 = 0.0104	1.001
283.15 K, m1 = 0.0193	1.002
283.15 K, m1 = 0.0326	1.005
283.15 K, m1 = 0.0417	1.006
283.15 K, m1 = 0.0492	1.008
283.15 K, m1 = 0.0599	1.011
283.15 K, m1 = 0.0698	1.013
283.15 K, m1 = 0.0804	1.016
283.15 K, m1 = 0.0893	1.019
283.15 K, m1 = 0.0901	1.019
283.15 K, m1 = 0.1	1.023
283.15 K, m1 = 0.1013	1.023

[1]
Details	mass density [kg/m3]
275.15 K, Pycnometric method, m1 = 0.0097	999.96
275.15 K, Pycnometric method, m1 = 0.0205	999.99
275.15 K, Pycnometric method, m1 = 0.0313	999.99
275.15 K, Pycnometric method, m1 = 0.0393	1000.02
275.15 K, Pycnometric method, m1 = 0.0487	1000.07
275.15 K, Pycnometric method, m1 = 0.0638	1000.09
275.15 K, Pycnometric method, m1 = 0.0719	1000.1
275.15 K, Pycnometric method, m1 = 0.0813	1000.12
275.15 K, Pycnometric method, m1 = 0.0905	1000.12
275.15 K, Pycnometric method, m1 = 0.102	1000.17
283.15 K, Buoyancy - hydrostatic balance with magnetic suspension - one sinker, m1 = 0.0104	999.73
283.15 K, Buoyancy - hydrostatic balance with magnetic suspension - one sinker, m1 = 0.0193	999.73
283.15 K, Buoyancy - hydrostatic balance with magnetic suspension - one sinker, m1 = 0.0326	999.76
283.15 K, Buoyancy - hydrostatic balance with magnetic suspension - one sinker, m1 = 0.0417	999.81
283.15 K, Buoyancy - hydrostatic balance with magnetic suspension - one sinker, m1 = 0.0492	999.79
283.15 K, Buoyancy - hydrostatic balance with magnetic suspension - one sinker, m1 = 0.0599	999.88
283.15 K, Buoyancy - hydrostatic balance with magnetic suspension - one sinker, m1 = 0.0698	999.93
283.15 K, Buoyancy - hydrostatic balance with magnetic suspension - one sinker, m1 = 0.0804	999.91
283.15 K, Buoyancy - hydrostatic balance with magnetic suspension - one sinker, m1 = 0.0893	999.94
283.15 K, Buoyancy - hydrostatic balance with magnetic suspension - one sinker, m1 = 0.0901	999.94
283.15 K, Buoyancy - hydrostatic balance with magnetic suspension - one sinker, m1 = 0.1	999.95
283.15 K, Buoyancy - hydrostatic balance with magnetic suspension - one sinker, m1 = 0.1013	999.97

O [water] + CCOCCOCCO
[1], m2 = 0
Details	viscosity [mPa·s]
275.15 K	1.674
283.15 K	1.31

[1], m2 = 0
Details	mass density [kg/m3]
275.15 K, Pycnometric method	999.94
283.15 K, Buoyancy - hydrostatic balance with magnetic suspension - one sinker	999.7

CCOCCO [2-ethoxyethan-1-ol] + O
[1]
Details	viscosity [mPa·s]
275.15 K, m1 = 0.0102	1.005
275.15 K, m1 = 0.0202	1.01
275.15 K, m1 = 0.0294	1.015
275.15 K, m1 = 0.0459	1.025
275.15 K, m1 = 0.0502	1.028
275.15 K, m1 = 0.0602	1.035
275.15 K, m1 = 0.071	1.042
275.15 K, m1 = 0.0818	1.05
275.15 K, m1 = 0.0902	1.057
275.15 K, m1 = 0.1008	1.065
283.15 K, m1 = 0.0067	1.002
283.15 K, m1 = 0.0191	1.006
283.15 K, m1 = 0.0303	1.01
283.15 K, m1 = 0.0392	1.014
283.15 K, m1 = 0.0492	1.018
283.15 K, m1 = 0.0598	1.022
283.15 K, m1 = 0.0682	1.026
283.15 K, m1 = 0.0799	1.032
283.15 K, m1 = 0.0885	1.036
283.15 K, m1 = 0.0906	1.037
283.15 K, m1 = 0.0996	1.042
283.15 K, m1 = 0.1004	1.043

[1]
Details	mass density [kg/m3]
275.15 K, Pycnometric method, m1 = 0.0102	999.95
275.15 K, Pycnometric method, m1 = 0.0202	999.95
275.15 K, Pycnometric method, m1 = 0.0294	999.95
275.15 K, Pycnometric method, m1 = 0.0459	999.96
275.15 K, Pycnometric method, m1 = 0.0502	999.96
275.15 K, Pycnometric method, m1 = 0.0602	999.97
275.15 K, Pycnometric method, m1 = 0.071	1000
275.15 K, Pycnometric method, m1 = 0.0818	1000
275.15 K, Pycnometric method, m1 = 0.0902	1000.01
275.15 K, Pycnometric method, m1 = 0.1008	1000.03
283.15 K, Buoyancy - hydrostatic balance with magnetic suspension - one sinker, m1 = 0.0067	999.7
283.15 K, Buoyancy - hydrostatic balance with magnetic suspension - one sinker, m1 = 0.0191	999.71
283.15 K, Buoyancy - hydrostatic balance with magnetic suspension - one sinker, m1 = 0.0303	999.71
283.15 K, Buoyancy - hydrostatic balance with magnetic suspension - one sinker, m1 = 0.0392	999.74
283.15 K, Buoyancy - hydrostatic balance with magnetic suspension - one sinker, m1 = 0.0492	999.72
283.15 K, Buoyancy - hydrostatic balance with magnetic suspension - one sinker, m1 = 0.0598	999.72
283.15 K, Buoyancy - hydrostatic balance with magnetic suspension - one sinker, m1 = 0.0682	999.73
283.15 K, Buoyancy - hydrostatic balance with magnetic suspension - one sinker, m1 = 0.0799	999.73
283.15 K, Buoyancy - hydrostatic balance with magnetic suspension - one sinker, m1 = 0.0885	999.73
283.15 K, Buoyancy - hydrostatic balance with magnetic suspension - one sinker, m1 = 0.0906	999.73
283.15 K, Buoyancy - hydrostatic balance with magnetic suspension - one sinker, m1 = 0.0996	999.76
283.15 K, Buoyancy - hydrostatic balance with magnetic suspension - one sinker, m1 = 0.1004	999.78
